Entries after “also recorded” stand apart in the source; their conditions may differ.
Tests used:
MLH1 [1] = assay: qPCR DNA repair gene expression in HT29-LUC: MLH1; type: cell-based, human; conditions: 10 μM, 24 hours, p<0.01
Description: (§1) HT29-LUC radioresistant colorectal adenocarcinoma cells were used to test the effects of the compound 4 on DNA repair gene expression. Cells were maintained in McCoy's 5A media supplemented with 10% foetal calf serum. A total of 300,000 cells, in 2 ml media, were seeded per well in 6 well plates and left to incubate for 24 hours. The media was replaced with solutions containing 10 μM of compound 4 or the equivalent volume of DMSO vehicle control. After 24 hours of treatment, RNA was extracted from the cells and converted to cDNA. qPCR was then conducted.

SMUG1 = assay: qPCR DNA repair gene expression in OE33R: SMUG1; type: cell-based, human; conditions: 10 μM, 24 hours
Description: as §1, with “OE33P radiosensitive oesophageal adenocarcinoma cells and OE33R” for “HT29-LUC”, “oesophageal” for “colorectal”, “RPMI” for “McCoy's 5A”, “serum, penicillin (100 U/ml) and streptomycin (100 μg/ml).” for “serum.”, “conducted and expression of MMS19, SMUG1 PARP1 and MLH1 was quantified, […]” for “conducted.”

MMS19 [2] = assay: qPCR DNA repair gene expression in OE33R: MMS19; type: cell-based, human; conditions: 10 μM, 24 hours
Description: as §1, with “OE33P radiosensitive oesophageal adenocarcinoma cells and OE33R” for “HT29-LUC”, “oesophageal” for “colorectal”, “RPMI” for “McCoy's 5A”, “serum, penicillin (100 U/ml) and streptomycin (100 μg/ml).” for “serum.”, “conducted and expression of MMS19, SMUG1 PARP1 and MLH1 was quantified, […]” for “conducted.”

[3] = system: OE33R radioresistant oesophageal adenocarcinoma cells; assay: Seahorse ECAR (glycolysis) in OE33R; type: cell-based, human; conditions: 10 μM, 24 hours
Description: (§2) OE33P radiosensitive oesophageal adenocarcinoma cells and OE33R radioresistant oesophageal adenocarcinoma cells were used to test the effects of the compound 4 on glycolysis. Cells were maintained in RPMI media supplemented with 10% foetal calf serum, penicillin (100 U/ml) and streptomycin (100 μg/ml). A total of 11,000 cells (OE33P) or 13,000 cells (OE33R), in 100 μl media, were seeded per well in 24 well plates and left to incubate for 24 hours, with an additional 150 μl media added after 5 hours. The media was replaced with solutions containing 10 μM of compound 4 or the equivalent volume of DMSO vehicle control. After 24 hours of treatment, media was replaced with modified DMEM supplemented with 0.5 mM glucose. Rates of glycolysis were determined using Seahorse Biosciences metabolism technology. The media was disposed and the cells washed with PBS. The cells were fixed with 1% glutaraldehyde for 15 minutes and then stained with crystal violet for 30 minutes. The plates were blotted and dried overnight. The cells were resuspended with 1% TritonX-100 and shaken for 15 minutes. The absorbance was read on a spectrophotometer at 595 nm Rates of glycolysis were then normalised to cell number.

[4] = system: OE33R radioresistant oesophageal adenocarcinoma cells; assay: Seahorse OCR (oxidative phosphorylation) in OE33R; type: cell-based, human; conditions: 10 μM, 24 hours, p<0.05
Description: as §2, with “radiosensitive” for “radiosensitive oesophageal adenocarcinoma cells”, “oxidative phosphorylation.” for “glycolysis.”, “11,000 OE33P” for “11,000”, “and” for “(OE33P) or”, “OE33R cells,” for “cells (OE33R),”, “oxidative phosphorylation” for “glycolysis”

[5] = system: HT29-LUC radioresistant colorectal adenocarcinoma cells; assay: Seahorse OCR (oxidative phosphorylation) in HT29-LUC; type: cell-based, human; conditions: 10 μM, 24 hours, p<0.01
Description: HT29-LUC radioresistant colorectal adenocarcinoma cells were used to test the effects of the compound 4 on oxidative phosphorylation. Cells were maintained in McCoy's 5A media supplemented with 10% foetal calf serum. A total of 20,000 cells, in 100 μl media, were seeded per well in 24 well plates and left to incubate for 24 hours, with an additional 150 μl media added after 5 hours. The media was replaced with solutions containing 10 μM of compound 4 or the equivalent volume of DMSO vehicle control. After 24 hours of treatment, media was replaced with modified DMEM supplemented with 0.5 mM glucose. Rates of oxidative phosphorylation were determined using Seahorse Biosciences metabolism technology. The media was disposed and the cells washed with PBS. The cells were fixed with 1% glutaraldehyde for 15 minutes and then stained with crystal violet for 30 minutes. The plates were blotted and dried overnight. The cells were resuspended with 1% TritonX-100 and shaken for 15 minutes. The absorbance was read on a spectrophotometer at 595 nm Rates of oxidative phosphorylation were then normalised to cell number.

PARP1 [6] = assay: qPCR DNA repair gene expression in OE33P: PARP1; type: cell-based, human; conditions: 10 μM, 24 hours
Description: as §1, with “OE33P radiosensitive oesophageal adenocarcinoma cells and OE33R” for “HT29-LUC”, “oesophageal” for “colorectal”, “RPMI” for “McCoy's 5A”, “serum, penicillin (100 U/ml) and streptomycin (100 μg/ml).” for “serum.”, “conducted and expression of MMS19, SMUG1 PARP1 and MLH1 was quantified, […]” for “conducted.”

PARP1 [7] = assay: qPCR DNA repair gene expression in OE33R: PARP1; type: cell-based, human; conditions: 10 μM, 24 hours
Description: as §1, with “OE33P radiosensitive oesophageal adenocarcinoma cells and OE33R” for “HT29-LUC”, “oesophageal” for “colorectal”, “RPMI” for “McCoy's 5A”, “serum, penicillin (100 U/ml) and streptomycin (100 μg/ml).” for “serum.”, “conducted and expression of MMS19, SMUG1 PARP1 and MLH1 was quantified, […]” for “conducted.”

MLH1 [8] = assay: qPCR DNA repair gene expression in OE33R: MLH1; type: cell-based, human; conditions: 10 μM, 24 hours
Description: as §1, with “OE33P radiosensitive oesophageal adenocarcinoma cells and OE33R” for “HT29-LUC”, “oesophageal” for “colorectal”, “RPMI” for “McCoy's 5A”, “serum, penicillin (100 U/ml) and streptomycin (100 μg/ml).” for “serum.”, “conducted and expression of MMS19, SMUG1 PARP1 and MLH1 was quantified, […]” for “conducted.”

MMS19 [9] = assay: qPCR DNA repair gene expression in OE33P: MMS19; type: cell-based, human; conditions: 10 μM, 24 hours, p<0.01
Description: as §1, with “OE33P radiosensitive oesophageal adenocarcinoma cells and OE33R” for “HT29-LUC”, “oesophageal” for “colorectal”, “RPMI” for “McCoy's 5A”, “serum, penicillin (100 U/ml) and streptomycin (100 μg/ml).” for “serum.”, “conducted and expression of MMS19, SMUG1 PARP1 and MLH1 was quantified, […]” for “conducted.”

[10] = system: OE33P radiosensitive oesophageal adenocarcinoma cells; assay: Seahorse ECAR (glycolysis) in OE33P; type: cell-based, human; conditions: 10 μM, 24 hours
Description: as §2

mouse aortic ring = assay: Ex vivo mouse aortic ring assay (sprout formation); conditions: 10 μM; C57/BL6 mouse aortic rings in matrigel; vs 0.1% DMSO; hydrochloride
Description: Aortae from sex matched C57/BL6 littermates were cleansed of adipose tissue, cut into 2 mm rings and immersed in matrigel. Aortic rings (6 per experiment) were treated with 0.1% DMSO (vehicle control/VC) or with 10 μM of Compound 4, Compound 12, Compound 15 or Compound 20. Sprouts from the perimeter of the aortic ring were counted and quantified as percentage of vehicle control (VC).

[11] = system: OE33P radiosensitive oesophageal adenocarcinoma cells; assay: Seahorse OCR (oxidative phosphorylation) in OE33P; type: cell-based, human; conditions: 10 μM, 24 hours
Description: as §2, with “radiosensitive” for “radiosensitive oesophageal adenocarcinoma cells”, “oxidative phosphorylation.” for “glycolysis.”, “11,000 OE33P” for “11,000”, “and” for “(OE33P) or”, “OE33R cells,” for “cells (OE33R),”, “oxidative phosphorylation” for “glycolysis”

Q: With Cl.Oc1ccccc1/C=C/c1cnccn1 [Compound 4, (E)-2-[2-(Pyrazin-2-yl)vinyl]phenol hydrochloride] as the compound, how does the “expression of MLH1 (qPCR)” value (MLH1 [1]) read?
A: significantly reduces the expression of MLH1

Q: What about the “expression of SMUG1 (qPCR)” value (SMUG1) of the same compound?
A: not significantly different to control

Q: What about the “expression of MMS19 (qPCR)” value (MMS19 [2]) of the same compound?
A: not significantly different to control

Q: What about the “extracellular acidification rate (ECAR), a measure of glycolysis” value [3] of the same compound?
A: does not significantly reduce extraceullar acidification rate

Q: And the “oxygen consumption rate (OCR), a measure of oxidative phosphorylation” value (from here on “oxygen consumption rate (OCR), a measure”) [4]?
A: does significantly reduce OCR

Q: And the “oxygen consumption rate (OCR), a measure” value [5]?
A: significantly reduces oxygen consumption rate

Q: What about the “expression of PARP1 (qPCR)” value (PARP1 [6]) of the same compound?
A: not significantly different to control

Q: And the “expression of PARP1 (qPCR)” value (PARP1 [7])?
A: not significantly different to control

Q: What about the “expression of MLH1 (qPCR)” value (MLH1 [8]) of the same compound?
A: not significantly different to control

Q: What about the “expression of MMS19 (qPCR)” value (MMS19 [9]) of the same compound?
A: significantly reduces the expression of MMS19

Q: What about the “extracellular acidification rate (ECAR), a measure of glycolysis” value [10] of the same compound?
A: does not significantly reduce extraceullar acidification rate

Q: And the “angiogenesis (sprout formation) in aortic rings” value (mouse aortic ring)?
A: block angiogenesis (sprout formation); also recorded: inhibit the formation of sprouts in a statistically significant manner

Q: What about the “oxygen consumption rate (OCR), a measure” value [11] of the same compound?
A: does not significantly reduce oxygen consumption rate
